Measurements taken from the NIST ThermoML archive (doi:10.1016/j.fluid.2007.07.059).

Tests used:
[1] = xn = mol fraction of the nth substance listed; conditions: Gas, Hot wire method
[2] = Gas, Hot wire method

CCC(C)C [2-methylbutane] + CCCCC
thermal conductivity [W/m/K], [1]
Conditions | 100 kPa | 200 kPa | 500 kPa
345.26 K, x1 = 0.6232 | 0.01956 | 0.01963 | 0.01984
345.54 K, x1 = 0.1695 | 0.01924 | 0.01936 | 0.01973
346.28 K, x1 = 0.3293 | 0.01932 | 0.01941 | 0.0197
361.52 K, x1 = 0.3293 | 0.02107 | 0.02119 | 0.02156
362.08 K, x1 = 0.1695 | 0.02122 | 0.02131 | 0.02155
362.43 K, x1 = 0.6232 | 0.02163 | 0.02169 | 0.02187
378.03 K, x1 = 0.6232 | 0.02381 | 0.02382 | 0.02387
378.23 K, x1 = 0.1695 | 0.02312 | 0.02327 | 0.02372
378.57 K, x1 = 0.3293 | 0.02344 | 0.02346 | 0.02351
394.05 K, x1 = 0.6232 | 0.02586 | 0.02591 | 0.02605
394.45 K, x1 = 0.1695 | 0.02554 | 0.02558 | 0.02571
395.51 K, x1 = 0.3293 | 0.02569 | 0.02572 | 0.02578

CCC(C)C [2-methylbutane]
thermal conductivity [W/m/K], [2]
Conditions | 342.97 K | 352.61 K | 375 K | 390.75 K
100 kPa | 0.01954 | 0.02064 | 0.02347 | 0.02574
200 kPa | 0.0196 | 0.02071 | 0.02356 | 0.0258
500 kPa | 0.01976 | 0.02093 | 0.02385 | 0.026

CCCCC [pentane]
thermal conductivity [W/m/K], [2]
Conditions | 342.97 K | 366.02 K | 380.86 K | 407.37 K
100 kPa | 0.01889 | 0.02169 | 0.02371 | 0.02719
200 kPa | 0.01895 | 0.02176 | 0.02378 | 0.02728
500 kPa | 0.01915 | 0.02198 | 0.02398 | 0.02754
